# From article PMC7726319, “Discovery of 5,5′-Methylenedi-2,3-Cresotic Acid as a Potent Inhibitor of the Chemotactic Activity of the HMGB1·CXCL12 Heterocomplex Using Virtual Screening and NMR Validation” (Frontiers in Chemistry, 2020)
# Biological target: T1, HMGB1 (Mus musculus, UniProt P63158)
# T1 construct: 6His-tagged form for MST
# T1 sequence (P63158 2-215): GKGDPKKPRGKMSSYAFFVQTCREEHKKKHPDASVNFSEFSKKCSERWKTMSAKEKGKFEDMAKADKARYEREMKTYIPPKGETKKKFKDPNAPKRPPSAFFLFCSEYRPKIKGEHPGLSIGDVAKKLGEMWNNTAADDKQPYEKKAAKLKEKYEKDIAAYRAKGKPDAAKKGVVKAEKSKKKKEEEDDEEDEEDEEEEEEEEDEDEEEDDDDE
# Assay: 1H-15N HSQC NMR titration (CSP fit)
# Assay type: binding
# Details: read-out: apparent Kd
structure (smiles),measurement,value
"O=C(/C=C/c1ccc(O)c(O)c1)O[C@H](Cc1ccc(O)c(O)c1)C(=O)O [compound 6, rosmarinic acid]",Kd,> 10 mM
